These results are taken from patent publication US9850247B2 (Almac Discovery Limited, priority 2013, dated 2017).

The nature of data set [1]: Kinetic solubility in PBS buffer (Method 5). The format is physicochemical. Conditions: aqueous buffer, kinetic from dmso stock; PBS buffer pH 7.4. The method, then:
[formula] [formula] [formula] where V=Incubation volume (μL)/number of cells Method 5: Determination of Kinetic Solubility (in PBS Buffer)
Test compounds (5 μL; 10 mM DMSO stock) were added to 245 μL 10 of PBS buffer pH 7.4 (Dulbecco A) in a Millipore MultiScreen® Solubility Filter plate and mixed at 300 rpm at room temperature on a plate shaker for 90 minutes. Meanwhile 5-points calibration curves for each compound were established in a mixture of acetonitrile/PBS buffer 15 (top concentration 200 μM). After filtration and matrix match, the calibration and assay plates were analysed on a Bioteck Synergy 4 plate reader (240-400 nm). Final concentration of the test compound in the filtrate was calculated using the slope of the calibration curve. All 20 measurements were carried out in triplicate.

For a further data set, the target named is T1, Wee-1 kinase (Homo sapiens, UniProt P30291).
T1 construct: purchased Invitrogen PV3817
T1 sequence (P30291 whole entry): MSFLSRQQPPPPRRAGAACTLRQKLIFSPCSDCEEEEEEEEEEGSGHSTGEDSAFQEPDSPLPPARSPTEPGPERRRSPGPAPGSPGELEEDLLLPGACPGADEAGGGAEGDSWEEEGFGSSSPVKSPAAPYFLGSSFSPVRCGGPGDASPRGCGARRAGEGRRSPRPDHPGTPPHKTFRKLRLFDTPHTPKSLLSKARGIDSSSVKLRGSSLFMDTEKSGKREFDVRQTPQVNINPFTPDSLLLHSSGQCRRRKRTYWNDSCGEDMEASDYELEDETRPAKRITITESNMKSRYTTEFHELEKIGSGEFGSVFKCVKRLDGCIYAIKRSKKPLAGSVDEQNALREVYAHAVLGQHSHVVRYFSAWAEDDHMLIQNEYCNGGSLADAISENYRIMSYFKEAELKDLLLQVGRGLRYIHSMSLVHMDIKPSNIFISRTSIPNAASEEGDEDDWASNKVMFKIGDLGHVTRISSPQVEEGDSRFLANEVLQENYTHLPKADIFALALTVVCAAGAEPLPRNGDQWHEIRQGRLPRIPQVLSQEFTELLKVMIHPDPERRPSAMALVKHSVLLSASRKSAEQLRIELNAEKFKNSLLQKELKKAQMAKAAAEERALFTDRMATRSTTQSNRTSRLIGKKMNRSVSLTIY
The experiment in a line: Measurement of Wee-1 kinase activity (ADP-Glo luminescent kit). The format is biochemical. The gist of the method: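 Activated Wee-1 was pre-incubated 30 min at RT with compound in 40 mM Tris-HCl, 20 mM MgCl2, 0.1 mg/mL BSA and 2 mM DTT. The reaction was started with an aliquot of 2.0 μg/mL poly(Lys,Tyr 4:1) plus 30 μM ATP and run 1 h at RT. ADP-Glo luminescence gave IC50 by non-linear fit.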
In general terms: ADP-Glo turns the ADP formed in a reaction into a luminescent signal.

Data set [2] deals with phospho-cdc2 (Tyr15) in HT-29 cells. The experiment in a line: Effect on phosphorylation of cdc2 at Tyr15, PathScan ELISA (Method 2). Conditions: Homo sapiens, 8 h, eight hours incubation, read-out: HT29 pCDC2 method 2. In kind it is cell-based. The method, then:
Method 2: Determining the Effect of Compounds on the phosphorylation of cdc2 at Tyr15
The colorectal cancer cell lines HT-29 and HCT-116 were purchased from the ATCC and routinely maintained in McCoy's Medium (Invitrogen) supplemented with 10% Foetal Calf Serum.
The cells were trypsinised from their growing vessel and counted, 100 μL of cell suspension containing 6000 cells was pipetted into black 96 well Co-star plates and incubated overnight to allow adherence to the surface at a temperature of 37° C. and an atmosphere of 5% CO2. Test compounds were formulated in DMSO and diluted in foetal calf serum supplemented medium. Incubating medium was removed by aspiration and diluted drug supplemented medium added to each well.
The plate was returned to the incubator for an additional eight hours at 37° C. and an atmosphere of 5% CO2. Post incubation, the drug supplemented medium was aspirated from each well and the cells were washed once in ice-cold phosphate buffered saline (PBS). 100 μL of cell lysis buffer (Cell Signalling Technologies #9803) containing 20 mM Tris, 150 mM NaCl, 1 mM EDTA, 1 mM EGTA, 1% Triton-X100, 2.5 mM sodium pyrophosphate, 1 mM glycerophosphate, 1 mM Na3VO4 and 1 μg/mL leupeptin was added to each well of the 96 well plate and incubated at 4° C. for 30 min. The samples on the plate were snap frozen at −80° C. until required. Immediately before the continuation of the assay, the sample plate was thawed and centrifuged at 4° C. for 10 min and the supernatant transferred to secondary tubes or 96 well plate.
Cell supernatant was mixed in a ratio of 1:1 with sample dilutent buffer and vortexed for one minute. 100 μL of diluted sample was pipetted into pre-coated plates containing a rabbit polyclonal antibody for phospho-cdc2 (Tyr15) (Cell Signalling Technologies PathScan kit #7176). The plate was sealed and incubated overnight at 4° C.
The plate seal was removed and the well contents aspirated, followed by 3×5 min washes with 200 μL of diluted wash buffer. Between each wash the plate was tapped firmly onto blotting paper to ensure the removal of all kit solution. 100 μL of kit detection antibody was added to each well and the plate re-sealed and incubated at 37° C. for 1 h. Post incubation the plate was washed and processed in a similar manner to that previously described.
100 μL of horseradish peroxidise-linked secondary antibody was added to each test well, the plate sealed and incubated for thirty minutes at 37° C. Post incubation, the plate was washed as previously stated, followed by the addition of 100 μL of 3,3′,5,5′ tetramethylbenzidine (TMB reagent). The plate was sealed and incubated at RT for 30 min.
100 μL of stop solution was added to each well and the underside of the plate wiped with a lint-free tissue, prior to spectrophotometric determination. Absorbance from each well was read at 450 nm within 30 min of the addition of the stop solution.
The percentage of phospho-cdc2 was calculated compared to DMSO control and plotted versus the concentration of inhibitor using GraphPad Prism. Data was fitted using non-linear regression analysis and IC50 values generated.
(In an ELISA, binding on a coated surface is turned into a signal by an enzyme label.)

Data set [3] in a line: CLint estimates using human liver microsomes (Method 4). The format is in vitro ADME. Conditions: pH 7.4, 1 μM compound, read-out: Mics - CLint (HLM CLint). A digest of the protocol: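 Compound at 1 μM (0.1% DMSO) incubated with human liver microsomes (0.5 mg protein/mL) in 0.1 M phosphate pH 7.4 at 37 °C, started with 1 mM NADPH. Samples taken 2–50 min, quenched in methanol, measured by LC/MS/MS (MRM). Half-life and CLint derived from the slope of ln peak area versus time.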

Data set [4] has as its target T2, human ether a go-go related gene (hERG) K′ channel (Homo sapiens, UniProt Q12809).
T2 construct: Essen BioScience
The experiment in a line: hERG activity, IonWorks patch clamp electrophysiology (Method 6). In kind it is cell-based. The method, then:
Method 6: Determination of hERG Activity
Compounds were tested for inhibition of the human ether a go-go related gene (hERG) K′ channel using IonWorks patch clamp electrophysiology at Essen BioScience. 8-Point concentration-response curves of the effect of compound on hERG current as a percentage of pre-compound signal were generated using 3-fold serial dilutions from 11 μM and results are reported as IC50 in μM.

Structures can show the parent of a compound that is named as a salt.

T2 sequence (Q12809 whole entry): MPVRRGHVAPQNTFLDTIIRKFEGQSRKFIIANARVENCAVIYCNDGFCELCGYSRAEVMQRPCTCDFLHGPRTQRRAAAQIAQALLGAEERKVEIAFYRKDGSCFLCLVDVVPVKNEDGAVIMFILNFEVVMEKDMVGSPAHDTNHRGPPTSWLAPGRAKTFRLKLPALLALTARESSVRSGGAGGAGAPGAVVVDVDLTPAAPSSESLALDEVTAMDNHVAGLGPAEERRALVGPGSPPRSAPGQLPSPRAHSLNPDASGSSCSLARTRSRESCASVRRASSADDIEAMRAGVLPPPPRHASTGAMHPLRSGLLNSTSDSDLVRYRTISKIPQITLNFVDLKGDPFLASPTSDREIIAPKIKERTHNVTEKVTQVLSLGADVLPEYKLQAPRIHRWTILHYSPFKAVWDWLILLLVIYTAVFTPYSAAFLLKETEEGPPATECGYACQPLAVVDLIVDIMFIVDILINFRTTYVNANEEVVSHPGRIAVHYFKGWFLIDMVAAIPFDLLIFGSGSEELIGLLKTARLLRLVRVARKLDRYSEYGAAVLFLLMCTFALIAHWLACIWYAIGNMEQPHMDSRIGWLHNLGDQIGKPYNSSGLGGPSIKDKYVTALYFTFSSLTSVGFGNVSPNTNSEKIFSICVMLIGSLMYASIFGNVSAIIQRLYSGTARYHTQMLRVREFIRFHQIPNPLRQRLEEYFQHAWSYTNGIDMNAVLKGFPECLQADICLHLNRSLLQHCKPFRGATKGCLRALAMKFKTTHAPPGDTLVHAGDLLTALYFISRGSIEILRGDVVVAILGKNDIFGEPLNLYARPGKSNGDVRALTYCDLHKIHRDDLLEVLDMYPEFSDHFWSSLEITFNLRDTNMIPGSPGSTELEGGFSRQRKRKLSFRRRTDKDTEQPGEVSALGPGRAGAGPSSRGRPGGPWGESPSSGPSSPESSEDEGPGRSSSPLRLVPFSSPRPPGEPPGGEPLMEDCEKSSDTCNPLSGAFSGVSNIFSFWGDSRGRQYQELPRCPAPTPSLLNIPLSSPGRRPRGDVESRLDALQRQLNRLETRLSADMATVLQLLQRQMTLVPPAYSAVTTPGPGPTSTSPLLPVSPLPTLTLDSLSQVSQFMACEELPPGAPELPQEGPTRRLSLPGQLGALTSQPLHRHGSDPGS

As usually defined, the kinetic solubility is the concentration staying in solution when a stock, usually in DMSO, is diluted into the medium. `Cc1cc(Nc2ncc3c(n2)N(C)CN(c2c(Cl)cccc2Cl)C3=O)ccc1N1CCNCC1` [drawing 385]: the kinetic solubility at 90 min in data set [1] was > 150 µM.

Consider `CN1CN(c2c(Cl)cccc2Cl)C(=O)c2cnc(Nc3ccc(CN4CCNCC4)cc3)nc21` [Example 12, 3-(2,6-Dichlorophenyl)-1-methyl-7-((4-(piperazin-1-ylmethyl)phenyl)amino)-2,3-dihydropyrimido[4,5-d]pyrimidin-4(1H)-one], for which the figures for the IC50 (at Wee-1 kinase; in data set [2]; in data set [4]) were 10 to 100 nM, 100 to 1000 nM and > 10000 nM, respectively. In addition, the microsomal CLint at 1 μM in data set [3] was ≤ 15 µL/min/mg.

Consider `CC1N(C)c2nc(Nc3ccc(N4CCNCC4)cc3)ncc2C(=O)N1c1c(Cl)cccc1Cl` (stereo not shown) [Example 26, 3-(2,6-Dichlorophenyl)-1,2-dimethyl-7-((4-(piperazin-1-yl)phenyl)amino)-2,3-dihydropyrimido[4,5-d]pyrimidin-4(1H)-one], for which the values for the IC50 (at Wee-1 kinase; in data set [2]) were 10 to 100 nM and ≥ 1000 nM, respectively. Besides, the microsomal CLint at 1 μM in data set [3] was ≤ 15 µL/min/mg.

Take `CN1CN(c2c(Cl)cccc2Cl)C(=O)c2cnc(Nc3ccc(CN4CCOCC4)cc3)nc21` [Example 27, 3-(2,6-Dichlorophenyl)-1-methyl-7-((4-(morpholinomethyl)phenyl)amino)-2,3-dihydropyrimido[4,5-d]pyrimidin-4(1H)-one]: the IC50 is 10 to 100 nM on Wee-1 kinase and 100 to 1000 nM in data set [2]. Also, in data set [3], the microsomal CLint at 1 μM is ≥ 50 µL/min/mg.

Consider `CN1CN(c2c(Cl)cccc2Cl)C(=O)c2cnc(Nc3ccc(N4CCNCC4)c(F)c3)nc21` [Example 7, 3-(2,6-Dichlorophenyl)-7-((3-fluoro-4-(piperazin-1-yl)phenyl)amino)-1-methyl-2,3-dihydropyrimido[4,5-d]pyrimidin-4(1H)-one], for which the IC50 on Wee-1 kinase is 10 to 100 nM; in data set [2], 100 to 1000 nM. Also, the microsomal CLint at 1 μM in data set [3] is ≤ 15 µL/min/mg.

In the case of `CN1CN(c2c(Cl)cccc2Cl)C(=O)c2cnc(Nc3ccc(N4CCNCC4)c(CO)c3)nc21` [Example 10, 3-(2,6-Dichlorophenyl)-7-((3-(hydroxymethyl)-4-(piperazin-1-yl)phenyl)amino)-1-methyl-2,3-dihydropyrimido[4,5-d]pyrimidin-4(1H)-one], the IC50 is ≤ 10 nM at Wee-1 kinase, 100 to 1000 nM in data set [2] and > 10000 nM in data set [4]. Moreover, the microsomal CLint at 1 μM in data set [3] was ≤ 15 µL/min/mg.

Take `O=C1c2cnc(Nc3ccc(N4CCNCC4)cc3)nc2N2CCCC2N1c1c(Cl)cccc1Cl` (stereo not shown) [Example 28, 6-(2,6-Dichlorophenyl)-2-((4-(piperazin-1-yl)phenyl)amino)-6a,7,8,9-tetrahydropyrimido[5,4-e]pyrrolo[1,2-a]pyrimidin-5(6H)-one]: the IC50 at Wee-1 kinase lay within 10 to 100 nM; in data set [2] it was 100 to 1000 nM. The microsomal CLint at 1 μM in data set [3] is ≤ 15 µL/min/mg.

Consider `Cc1cc(Nc2ncc3c(=O)n(-c4c(Cl)cccc4Cl)cc(C)c3n2)ccc1N1CCNCC1` [reference compound], for which the solubility (kinetic) at 90 min in data set [1] was < 50 µM.

Regarding `Cc1cn(-c2c(Cl)cccc2Cl)c(=O)c2cnc(Nc3ccc(N4CCNCC4)cc3)nc12` [reference compound], the kinetic solubility at 90 min in data set [1] is < 50 µM.

For `CN1CN(c2c(Cl)cccc2Cl)C(=O)c2cnc(Nc3ccc(N4CCNCC4)cc3)nc21` [drawing 383], the kinetic solubility at 90 min in data set [1] is > 150 µM.

As for `CN1CCN(Cc2ccc(Nc3ncc4c(n3)N(C)CN(c3c(Cl)cccc3Cl)C4=O)cc2)CC1` [Example 29, 3-(2,6-Dichlorophenyl)-1-methyl-7-((4-((4-methylpiperazin-1-yl)methyl)phenyl)amino)-2,3-dihydropyrimido[4,5-d]pyrimidin-4(1H)-one], the IC50 at Wee-1 kinase lay in the range of 10 to 100 nM; in data set [2], 100 to 1000 nM. The microsomal CLint at 1 μM in data set [3] was ≥ 50 µL/min/mg.

Regarding `CN1CN(c2c(Cl)cccc2Cl)C(=O)c2cnc(Nc3ccc(N4CCN[C@H](CO)C4)cc3)nc21` [Example 20, (S)-3-(2,6-Dichlorophenyl)-7-((4-(3-(hydroxymethyl)piperazin-1-yl)phenyl)amino)-1-methyl-2,3-dihydropyrimido[4,5-d]pyrimidin-4(1H)-one], the IC50 on Wee-1 kinase was ≤ 10 nM; in data set [2], 100 to 1000 nM; in data set [4], > 10000 nM. The microsomal CLint at 1 μM in data set [3] is 15 to 50 µL/min/mg.

Consider `CN1CN(c2c(Cl)cccc2Cl)C(=O)c2cnc(Nc3ccc(N4CCN(CC(=O)O)CC4)cc3)nc21` [Example 4, 2-(4-(4-((6-(2,6-Dichlorophenyl)-8-methyl-5-oxo-5,6,7,8-tetrahydropyrimido[4,5-d]pyrimidin-2-yl)amino)phenyl)piperazin-1-yl)acetic acid hydrochloride], for which the IC50 at Wee-1 kinase was 10 to 100 nM; in data set [2], ≥ 1000 nM. The microsomal CLint at 1 μM in data set [3] is ≤ 15 µL/min/mg.

With `O=C1c2cnc(Nc3ccc(N4CCNCC4)cc3)nc2NCN1c1c(Cl)cccc1Cl` [Example 9, 3-(2,6-Dichlorophenyl)-7-((4-(piperazin-1-yl)phenyl)amino)-2,3-dihydropyrimido[4,5-d]pyrimidin-4(1H)-one], the IC50 at Wee-1 kinase was in the range of 10 to 100 nM; in data set [2], 100 to 1000 nM. For the same compound, the microsomal CLint at 1 μM in data set [3] is ≤ 15 µL/min/mg.
